Experimental data as given in publication PMC8536799 (Journal of medicinal chemistry, 2021).

Tests used:
Vero E6 cells = test: Cytotoxicity, neutral red uptake assay in Vero E6 cells
[1] = as above; conditions: African green monkey
EV-A71 3C^pro = EV-A71 3C^pro (Human enterovirus 71, UniProt Q66478); test: FRET-based enzymatic assay, EV-A71 3C^pro; type: biochemical
EV-D68 2A^pro = EV-D68 2A^pro (Human enterovirus D68, UniProt Q68T42); test: FRET-based enzymatic assay, EV-D68 2A^pro; type: biochemical
EV-D68 2A^pro, sequence (Q68T42 862-1008 limits assumed): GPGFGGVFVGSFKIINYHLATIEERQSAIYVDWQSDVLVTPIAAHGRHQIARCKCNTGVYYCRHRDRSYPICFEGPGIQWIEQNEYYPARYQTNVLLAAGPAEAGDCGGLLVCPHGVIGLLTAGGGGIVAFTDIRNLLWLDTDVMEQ

MERS-CoV M^pro = MERS-CoV M^pro (Middle East respiratory syndrome-related coronavirus, UniProt K9N7C7); type: biochemical
MERS-CoV M^pro, sequence (K9N7C7 3248-3553 limits assumed): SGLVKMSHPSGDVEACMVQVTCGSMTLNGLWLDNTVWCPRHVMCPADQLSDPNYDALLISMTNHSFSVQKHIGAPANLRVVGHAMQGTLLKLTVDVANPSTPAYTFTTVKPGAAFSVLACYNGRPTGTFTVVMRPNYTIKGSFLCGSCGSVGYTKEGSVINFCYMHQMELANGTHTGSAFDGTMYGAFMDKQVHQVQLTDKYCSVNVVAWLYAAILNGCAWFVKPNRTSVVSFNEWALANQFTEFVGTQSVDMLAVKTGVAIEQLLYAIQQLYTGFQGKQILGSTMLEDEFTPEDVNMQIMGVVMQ

Calu-3 cells = test: Cytotoxicity in Calu-3 cells
SARS-CoV M^pro = SARS-CoV M^pro (Severe acute respiratory syndrome coronavirus, UniProt P0C6X7); test: biochemical; conditions: IC50 against SARS-CoV M^pro
EV-D68 3C^pro = EV-D68 3C^pro (Human enterovirus D68, UniProt Q68T42); test: FRET-based enzymatic assay, EV-D68 3C^pro; type: biochemical
EV-D68 3C^pro, sequence (Q68T42 1549-1731 limits assumed): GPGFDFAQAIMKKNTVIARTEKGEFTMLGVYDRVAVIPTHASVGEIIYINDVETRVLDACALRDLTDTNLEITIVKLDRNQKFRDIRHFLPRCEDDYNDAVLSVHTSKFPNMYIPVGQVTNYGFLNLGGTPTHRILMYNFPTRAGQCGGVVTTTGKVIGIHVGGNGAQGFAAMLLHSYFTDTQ

HCoV-OC43 M^pro = HCoV-OC43 M^pro (Human coronavirus OC43, UniProt P0C6X6); test: FRET-based enzymatic assay, HCoV-OC43 M^pro
HCoV-OC43 M^pro, sequence (P0C6X6 3247-3549 limits assumed): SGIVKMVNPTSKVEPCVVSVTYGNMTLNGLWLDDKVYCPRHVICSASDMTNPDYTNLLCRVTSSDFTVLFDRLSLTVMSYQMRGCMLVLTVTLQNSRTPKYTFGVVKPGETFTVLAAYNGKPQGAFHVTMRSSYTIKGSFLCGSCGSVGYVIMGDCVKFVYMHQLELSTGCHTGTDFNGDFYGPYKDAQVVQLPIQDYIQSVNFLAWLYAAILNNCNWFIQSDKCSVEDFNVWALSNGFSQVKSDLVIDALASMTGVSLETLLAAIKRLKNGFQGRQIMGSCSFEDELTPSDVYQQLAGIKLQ

EV-A71 2A^pro = EV-A71 2A^pro (Human enterovirus 71, UniProt Q66478); test: FRET-based enzymatic assay, EV-A71 2A^pro; type: biochemical
EV-A71 2A^pro, sequence (Q66478 863-1012 limits assumed): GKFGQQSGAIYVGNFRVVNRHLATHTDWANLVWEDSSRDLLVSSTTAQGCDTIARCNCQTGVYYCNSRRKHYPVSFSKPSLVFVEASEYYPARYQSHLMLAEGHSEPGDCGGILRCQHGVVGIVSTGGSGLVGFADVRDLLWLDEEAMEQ

EV-A71 3C^pro, sequence (Q66478 1549-1731 limits assumed): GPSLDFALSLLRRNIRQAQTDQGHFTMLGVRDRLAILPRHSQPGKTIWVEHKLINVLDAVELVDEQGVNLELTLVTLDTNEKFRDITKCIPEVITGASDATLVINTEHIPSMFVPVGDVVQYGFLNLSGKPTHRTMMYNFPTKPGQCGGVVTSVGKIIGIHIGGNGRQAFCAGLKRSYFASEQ

For `CC(C)(C)c1ccc(N(C(=O)c2ccco2)C(C(=O)NC2CC2)c2cccnc2)cc1` (centres unmarked) [Compound 3, 2-[N-(4-tert-butylphenyl)-1-(furan-2-yl)formamido]-N-cyclopropyl-2-(pyridin-3-yl)acetamide], the “CC50 in Vero E6 cells” value (Vero E6 cells) was “moderate to high cellular cytotoxicity”.
`CC(C)(C)c1ccc(N(C(=O)c2ccco2)C(C(=O)NC2CCCC2)c2cccnc2)cc1` (centres unmarked) [Compound 5, 2-[N-(4-tert-butylphenyl)-1-(furan-2-yl)formamido]-N-cyclopentyl-2-(pyridin-3-yl)acetamide] gave a CC50 at 5 days [1] greater than 100 µM.
In the case of `CC(C)(C)c1ccc(N(C(=O)c2ccco2)C(C(=O)NC2CCCCC2)c2cccnc2)cc1` (centres unmarked) [Compound 6, 2-[N-(4-tert-butylphenyl)-1-(furan-2-yl)formamido]-N-cyclohexyl-2-(pyridin-3-yl)acetamide], the “CC50 in Vero E6 cells” value (Vero E6 cells) is reported as “moderate to high cellular cytotoxicity”.
With `C[C@H](NC(=O)C(c1cccnc1)N(C(=O)c1ccco1)c1ccc([Si](C)(C)C)cc1)c1ccccc1` (stereo partly drawn) [Compound 14, 2-[1-(furan-2-yl)-N-[4-(trimethylsilyl)phenyl]formamido]-N-[(1S)-1-phenylethyl]-2-(pyridinyl)acetamide] the “CC50 in Vero E6 cells” value (Vero E6 cells) was “moderate to high cellular cytotoxicity”.
With `C[C@H](NC(=O)C(c1cccnc1)N(C(=O)c1ccco1)c1ccc(C2CCCCC2)cc1)c1ccccc1` (stereo partly drawn) [Compound 17, 2-[N-(4-cyclohexylphenyl)-1-(furan-2-yl)formamido]-N-[(1S)-1-phenylethyl]-2-(pyridin-3-yl)acetamide] the “CC50 in Vero E6 cells” value (Vero E6 cells) was “moderate to high cellular cytotoxicity”.
With `C[C@H](NC(=O)C(c1cccnc1)N(C(=O)c1ccco1)c1ccc(-c2ccco2)cc1)c1ccccc1` (stereo partly drawn) [Compound 18, 2-[1-(furan-2-yl)-N-[4-(furan-2-yl)phenyl]formamido]-N-[(1S)-1-phenylethyl]-2-(pyridin-3-yl)acetamide] the “CC50 in Vero E6 cells” value (Vero E6 cells) was “moderate to high cellular cytotoxicity”.
With `C[C@H](NC(=O)C(c1cccnc1)N(C(=O)c1ccco1)c1ccc(-c2cccs2)cc1)c1ccccc1` (stereo partly drawn) [Compound 19, 2-[1-(furan-2-yl)-N-[4-(thiophen-2-yl)phenyl]formamido]-N-[(1S)-1-phenylethyl]-2-(pyridin-3-yl)acetamide] the “CC50 in Vero E6 cells” value (Vero E6 cells) was “moderate to high cellular cytotoxicity”.
For `C[C@H](NC(=O)[C@@H](c1cccnc1)N(C(=O)c1ccco1)c1ccc(-c2ccccc2)cc1)c1ccccc1` [Compound 23R, (2R)-2-(N-{[1,1’-biphenyl]-4-yl}-1-(furan-2-yl)formamido)-N-[(1S)-1-phenylethyl]-2-(pyridin-3-yl)acetamide], the “IC50 against EV-A71 3C^pro” value (EV-A71 3C^pro; FRET-based enzymatic assay) was “not other viral proteases tested”, the “IC50 against EV-D68 2A^pro” value (EV-D68 2A^pro; FRET-based enzymatic assay) was “not other viral proteases tested” and the “IC50 against MERS-CoV M^pro” value (MERS-CoV M^pro) was “not other viral proteases tested”. The “cytotoxicity in Calu-3 cells (not cytotoxic at up to)” value (Calu-3 cells) was greater than 100 µM, the IC50 (SARS-CoV M^pro) was no more than 0.27 µM and the “cytotoxicity to Vero E6 cells (not cytotoxic at up to)” value (Vero E6 cells) was greater than 100 µM. For the same compound, the “IC50 against EV-D68 3C^pro” value (EV-D68 3C^pro; FRET-based enzymatic assay) was “not other viral proteases tested”, the “IC50 against HCoV-OC43 M^pro” value (HCoV-OC43 M^pro) was “not other viral proteases tested” and the “IC50 against EV-A71 2A^pro” value (EV-A71 2A^pro; FRET-based enzymatic assay) was “not other viral proteases tested”.
With `C[C@H](NC(=O)C(c1cccnc1)N(C(=O)c1cnco1)c1ccc(-c2ccccc2)cc1)c1ccccc1` (stereo partly drawn) [Compound 26, 2-(N-{[1,1’-biphenyl]-4-yl}-1-(1,3-oxazol-5-yl)formamido)-N-[(1S)-1-phenylethyl]-2-(pyridin-3-yl)acetamide] the “CC50 in Vero E6 cells” value (Vero E6 cells) was “moderate to high cellular cytotoxicity”.
For `O=C(NC1CCCCC1)C(c1cccnc1)N(C(=O)c1ccco1)c1ccc(-c2ccccc2)cc1` (centres unmarked) [Compound 34, 2-(N-{[1,1’-biphenyl]-4-yl}-1-(furan-2-yl)formamido)-N-cyclohexyl-2-(pyridin-3-yl)acetamide], the “CC50 in Vero E6 cells” value (Vero E6 cells) was “moderate to high cellular cytotoxicity”.
With `C[C@H](NC(=O)C(c1cccnc1)N(C(=O)c1ccno1)c1ccc(C2CCCCC2)cc1)c1ccccc1` (stereo partly drawn) [Compound 36, 2-[N-(4-cyclohexylphenyl)-1-(1,2-oxazol-5-yl)formamido]-N-[(1S)-1-phenylethyl]-2-(pyridin-3-yl)acetamide] the “CC50 in Vero E6 cells” value (Vero E6 cells) was “moderate to high cellular cytotoxicity”.
`CC(C)C[C@H](NC(=O)OCc1ccccc1)C(=O)N[C@@H](C[C@@H]1CCNC1=O)C(O)S(=O)(=O)O` (some centres unmarked) [GC376, reference compound] gave an IC50 (EV-A71 3C^pro) of no more than 0.16 µM, an IC50 (EV-D68 2A^pro) greater than 50 µM and an IC50 (EV-D68 3C^pro) of no more than 0.16 µM. The IC50 (EV-A71 2A^pro) was greater than 50 µM.
